From ChEMBL document CHEMBL3286379, “Design and synthesis of pyrimidine molecules endowed with thiazolidin-4-one as new anticancer agents” (Eur J Med Chem, 2014)

Assays:
[1] = Growth inhibition of human HCC2998 cells after 48 hrs by sulforhodamine B assay; type: functional; settings: HCC 2998, 48 h
[2] = Growth inhibition of human UACC62 cells after 48 hrs by sulforhodamine B assay; type: functional; settings: UACC-62, 48 h
KM12 = test: Growth inhibition of human KM12 cells after 48 hrs by sulforhodamine B assay; type: functional; settings: KM12, 48 h
786-0 = test: Growth inhibition of human 786-0 cells after 48 hrs by sulforhodamine B assay; type: functional; settings: 786-0, 48 h
K562 = test: Growth inhibition of human K562 cells after 48 hrs by sulforhodamine B assay; type: functional; settings: K562, 48 h
SK-MEL-2 = test: Growth inhibition of human SK-MEL-2 cells after 48 hrs by sulforhodamine B assay; type: functional; settings: SK-MEL-2, 48 h
SN12C = test: Growth inhibition of human SN12C cells after 48 hrs by sulforhodamine B assay; type: functional
CCRF-CEM = test: Growth inhibition of human CCRF-CEM cells after 48 hrs by sulforhodamine B assay; type: functional
NCI-H322M = test: Growth inhibition of human NCI-H322M cells after 48 hrs by sulforhodamine B assay; type: functional
[3] = Growth inhibition of human OVCAR8 cells after 48 hrs by sulforhodamine B assay; type: functional; settings: OVCAR-8, 48 h
SK-MEL-5 = test: Growth inhibition of human SK-MEL-5 cells after 48 hrs by sulforhodamine B assay; type: functional; settings: SK-MEL-5, 48 h
[4] = Growth inhibition of human UO31 cells after 48 hrs by sulforhodamine B assay; type: functional; settings: UO-31, 48 h
[5] = Growth inhibition of human OVCAR4 cells after 48 hrs by sulforhodamine B assay; type: functional; settings: OVCAR-4, 48 h
TK-10 = test: Growth inhibition of human TK10 cells after 48 hrs by sulforhodamine B assay; type: functional; settings: TK-10, 48 h
MDA-MB-468 = test: Growth inhibition of human MDA-MB-468 cells after 48 hrs by sulforhodamine B assay; type: functional; settings: MDA-MB-468, 48 h
[6] = Growth inhibition of human OVCAR5 cells after 48 hrs by sulforhodamine B assay; type: functional; settings: OVCAR-5, 48 h
[7] = Growth inhibition of human NCI-ADR-RES cells after 48 hrs by sulforhodamine B assay; type: functional
CAKI-1 = test: Growth inhibition of human CAKI-1 cells after 48 hrs by sulforhodamine B assay; type: functional; settings: CAKI-1, 48 h
Rattus norvegicus = test: Hepatotoxicity in rat assessed as SGOT level at 0.12 mg/kg, po after 12 days (reference value: 140.23 +/- 1.39 U/mL); type: toxicity, organism-based; parameters: dose 0.12 mg/kg, route oral; settings: in vivo, 288 h
ACHN = test: Growth inhibition of human ACHN cells after 48 hrs by sulforhodamine B assay; type: functional
SR = test: Growth inhibition of human SR cells after 48 hrs by sulforhodamine B assay; type: functional
[8] = read-out: LC50 (the source's name)
[9] = read-out: pLC50 (the source's name) (converted)

With `Nc1nc(-c2ccccc2Cl)cc(-c2ccc(Cl)cc2Cl)n1` the GI50 ([1]; read-out: GI50) was 7.19 µM, the CC50 [1, 8] was > 100 µM and the TGI ([1]; read-out: TGI) was 44 µM. The GI50 ([1]; read-out: pGI50 (converted)) was 7.24 µM, the CC50 [1, 9] was > 100 µM and the TGI ([1]; read-out: pTGI) was 43.7 µM. The GI50 ([2]; read-out: GI50) was 5.93 µM, the CC50 [2, 8] was > 100 µM and the TGI ([2]; read-out: TGI) was 44.2 µM. For the same compound, the GI50 ([2]; read-out: pGI50 (converted)) was 5.89 µM, the CC50 [2, 9] was > 100 µM and the TGI ([2]; read-out: pTGI (converted)) was 44.7 µM. The GI50 (KM12; read-out: GI50) was 4.1 µM, the CC50 (KM12; [8]) was > 100 µM and the TGI (KM12; read-out: TGI) was 31.3 µM. For the same compound, the GI50 (KM12; read-out: pGI50 (converted)) was 4.07 µM, the CC50 (KM12; [9]) was > 100 µM and the TGI (KM12; read-out: pTGI (converted)) was 30.9 µM. The GI50 (786-0; read-out: GI50) was 20.2 µM, the CC50 (786-0; [8]) was > 100 µM and the TGI (786-0; read-out: TGI) was > 100 µM. For the same compound, the GI50 (786-0; read-out: pGI50 (converted)) was 20.4 µM, the CC50 (786-0; [9]) was > 100 µM and the TGI (786-0; read-out: pTGI) was > 100 µM. The GI50 (K562; read-out: GI50) was 3.97 µM, the CC50 (K562; [8]) was > 100 µM and the TGI (K562; read-out: TGI) was > 100 µM. The GI50 (K562; read-out: pGI50 (converted)) was 3.98 µM, the CC50 (K562; [9]) was > 100 µM and the TGI (K562; read-out: pTGI) was > 100 µM. The GI50 (SK-MEL-2; read-out: GI50) was 6.1 µM, the CC50 (SK-MEL-2; [8]) was > 100 µM and the TGI (SK-MEL-2; read-out: TGI) was 44.7 µM. For the same compound, the GI50 (SK-MEL-2; read-out: pGI50 (converted)) was 6.17 µM, the CC50 (SK-MEL-2; [9]) was > 100 µM and the TGI (SK-MEL-2; read-out: pTGI (converted)) was 44.7 µM. The GI50 (SN12C; read-out: GI50) was 13.1 µM, the CC50 (SN12C; [8]) was > 100 µM and the TGI (SN12C; read-out: TGI) was > 100 µM. For the same compound, the GI50 (SN12C; read-out: pGI50 (converted)) was 13.2 µM, the CC50 (SN12C; [9]) was > 100 µM and the TGI (SN12C; read-out: pTGI) was > 100 µM. For the same compound, the GI50 (CCRF-CEM; read-out: GI50) was 4.17 µM, the CC50 (CCRF-CEM; [8]) was > 100 µM and the TGI (CCRF-CEM; read-out: TGI) was > 100 µM. The GI50 (CCRF-CEM; read-out: pGI50 (converted)) was 4.17 µM, the CC50 (CCRF-CEM; [9]) was > 100 µM and the TGI (CCRF-CEM; read-out: pTGI) was > 100 µM. For the same compound, the GI50 (NCI-H322M; read-out: GI50) was 31.2 µM, the CC50 (NCI-H322M; [8]) was > 100 µM and the TGI (NCI-H322M; read-out: TGI) was > 100 µM. For the same compound, the GI50 (NCI-H322M; read-out: pGI50 (converted)) was 30.9 µM, the CC50 (NCI-H322M; [9]) was > 100 µM and the TGI (NCI-H322M; read-out: pTGI) was > 100 µM. For the same compound, the GI50 ([3]; read-out: GI50) was 6.87 µM, the CC50 [3, 8] was > 100 µM and the TGI ([3]; read-out: TGI) was > 100 µM. For the same compound, the GI50 ([3]; read-out: pGI50 (converted)) was 6.92 µM, the CC50 [3, 9] was > 100 µM and the TGI ([3]; read-out: pTGI) was > 100 µM. It also gave a GI50 (SK-MEL-5; read-out: GI50) of 4.78 µM, a CC50 (SK-MEL-5; [8]) of 71.1 µM and a TGI (SK-MEL-5; read-out: TGI) of 20.8 µM. It also gave a GI50 (SK-MEL-5; read-out: pGI50 (converted)) of 4.79 µM, a CC50 (SK-MEL-5; [9]) of 70.8 µM and a TGI (SK-MEL-5; read-out: pTGI (converted)) of 20.9 µM. The GI50 ([4]; read-out: GI50) was 13.5 µM, the CC50 [4, 8] was > 100 µM and the TGI ([4]; read-out: TGI) was > 100 µM. For the same compound, the GI50 ([4]; read-out: pGI50 (converted)) was 13.5 µM, the CC50 [4, 9] was > 100 µM and the TGI ([4]; read-out: pTGI) was > 100 µM. The GI50 [5] was 12 µM, the CC50 [5, 8] was > 100 µM and the CC50 [5, 9] was > 100 µM. For the same compound, the TGI ([5]; read-out: pTGI (converted)) was 89.1 µM, the GI50 (TK-10; read-out: GI50) was 9.46 µM and the CC50 (TK-10; [8]) was > 100 µM. For the same compound, the TGI (TK-10; read-out: TGI) was 51 µM, the GI50 (TK-10; read-out: pGI50 (converted)) was 9.55 µM and the CC50 (TK-10; [9]) was > 100 µM. The TGI (TK-10; read-out: pTGI (converted)) was 51.3 µM, the GI50 (MDA-MB-468; read-out: GI50) was 2.18 µM and the CC50 (MDA-MB-468; [8]) was > 100 µM. The TGI (MDA-MB-468; read-out: TGI) was 8.66 µM, the GI50 (MDA-MB-468; read-out: pGI50 (converted)) was 2.19 µM and the CC50 (MDA-MB-468; [9]) was > 100 µM. For the same compound, the TGI (MDA-MB-468; read-out: pTGI (converted)) was 8.71 µM, the GI50 ([6]; read-out: GI50) was 8.09 µM and the CC50 [6, 8] was > 100 µM. For the same compound, the TGI ([6]; read-out: TGI) was > 100 µM, the GI50 ([6]; read-out: pGI50 (converted)) was 8.13 µM and the CC50 [6, 9] was > 100 µM. The TGI ([6]; read-out: pTGI) was > 100 µM, the GI50 ([7]; read-out: GI50) was 14.8 µM and the CC50 [7, 8] was > 100 µM. For the same compound, the TGI ([7]; read-out: TGI) was > 100 µM, the GI50 ([7]; read-out: pGI50 (converted)) was 14.8 µM and the CC50 [7, 9] was > 100 µM. The TGI ([7]; read-out: pTGI) was > 100 µM, the GI50 (CAKI-1; read-out: GI50) was 9.27 µM and the CC50 (CAKI-1; [8]) was > 100 µM. The TGI (CAKI-1; read-out: TGI) was > 100 µM, the GI50 (CAKI-1; read-out: pGI50 (converted)) was 9.33 µM and the CC50 (CAKI-1; [9]) was > 100 µM. The TGI (CAKI-1; read-out: pTGI) was > 100 µM, the Activity (Rattus norvegicus) was 133.47 U/ml and the GI50 (ACHN; read-out: GI50) was 10.4 µM. For the same compound, the CC50 (ACHN; [8]) was > 100 µM, the TGI (ACHN; read-out: TGI) was > 100 µM and the GI50 (ACHN; read-out: pGI50 (converted)) was 10.5 µM. The CC50 (ACHN; [9]) was > 100 µM, the TGI (ACHN; read-out: pTGI) was > 100 µM and the GI50 (SR; read-out: GI50) was 4.1 µM. The CC50 (SR; [8]) was > 100 µM, the TGI (SR; read-out: TGI) was > 100 µM and the GI50 (SR; read-out: pGI50 (converted)) was 4.07 µM. For the same compound, the CC50 (SR; [9]) was > 100 µM and the TGI (SR; read-out: pTGI) was > 100 µM.
